According to patent US9040586B2, “Veterinary compositions for controlling ecto- and endoparasites in bovines, use of these compositions, use of IGR substances associated with microminerals, method for controlling ecto- and endoparasites in bovines and kit” (Champion Farmoquimico Ltda., priority 2012, dated 2015):

Assays:
[1] = cited from earlier work
[2] = cited from earlier work; remark: listed apart in the source
Haematobia irritans [3] = assay: Haematobia irritans in vitro test: eggs developed in feces of treated cattle; assay type: in vivo; settings: 20 days
Procedure: In order to evaluate the efficacy of Diflubenzuron over H. irritans larval development, without possible interference of climate changes, an experiment was conducted under controlled conditions.
Adult horn flies over untreated animals were captured with a net and then shipped to the Tropical Pathology and Public Health Institute (IPTSP/GO) in order to obtain the eggs. The flies were put on cages lined with moist coffee filter as a substrate for oviposition. The filter was inspected every three hours for eggs. Those were subject to analysis regarding viability and transferred to a vessel containing feces from 4 animals among the control and diflubenzuron treated groups, randomly chosen, each containing 50 viable eggs. These containers with feces were maintained in a B.O.D. incubator with constant temperature (25° C.) and under photoperiod of 12 hours, for a 20 day period, at the end of which was noted an end to the hatching of eggs.
Both groups—T0 e T1—, were statistically compared by the Mann-Whitney test, with P adjusted in 0.05 due to the impossibility of testing distribution normality, given the low number of repetitions (n=4).

[4] = system: Rhipicephalus (Boophilus) microplus; assay: Rhipicephalus (Boophilus) microplus challenge: engorged female weight and oviposition; assay type: in vivo, calves; settings: treated group
Procedure: For this challenge, 5 animals were randomly selected from each group. Animals from both control and treated groups were transferred to individual tick-free pens with wooden tiled floor, where they remained for 21 days until the engorged females dropped to the ground. Those were collected on a daily basis for a 5 day period, and put on plastic vessels, formerly washed and dried with paper towels. After the engorged ticks were weighed, they're put on Petri dishes and then into a B.O.D. incubator for two weeks, under 27° C. and relative humidity over 85% (SANTOS e FURLONG, 2002; PEREIRA, 2006).
After this period, oviposition in each of the Petri dishes were weighed and transferred to assay tubes (15 cm high and with a 15 mm diameter each) sealed with cotton. The assays tubes were labeled and then returned to the B.O.D. incubator, under the same conditions described above, up to the larval emergence.

Haematobia irritans [5] = assay: Haematobia irritans field test: horn fly counts on calves; assay type: in vivo
Procedure: The experiment was conducted at Fazenda Santo Amaro in the city of Ouro Verde de Goiás—GO, Brazil, between October 2011 and January 2012, on 20 calves aged 12-16 months and weigh between 147 and 305 kg, divided in control group (T0) and treated group (T1).
The animals were weighed, identified and kept on Brachiaha brizantha pasture with “ad libitum” access to drinking water troughs. The control group received “ad libitum” minerals (T0), while the treated group received a micromineral mixture containing iron, copper, manganese, iodine, cobalt, zinc, selenium and chromium added to rock salt. Diflubenzuron was added to this mixture in the following proportion: 1.1 g per kilo of the mixture. A macromineral source was offered separately in the trough.
In order to determine the number of horn flies, ticks and helminth eggs per gram of feces, as well as periodic weighing, the animals were handled in a 30 day basis.
The animals were lead to the corral for the initial counting of the total number of horn flies in the cervical and lumbar regions.
The field experiment was conducted during the summer, a critical period for horn fly infestations in Brazil (BIANCHIN et al., 2004). […]
At the end of the experimental period, the animals were lead to the containment chute to have the flies counted. […]

[6] = system: gastrointestinal nematodes of cattle; settings: 19 of the 23 farms; cited from earlier work

Cc1ccc(N=c2sccn2C)c(C)c1 [Cymiazoles]
withdrawal prior to slaughter ([1]; beef cattle): 3 days
Withdrawal period Milk ([1]; milk / lactating cows, in words, table cells wrap over 4 rows: 'Do not apply on lactating cows'): no withdrawn period needed

CC1(C)C(C=C(Cl)Cl)C1C(=O)OC(C#N)c1cccc(Oc2ccccc2)c1 (stereo not drawn) [Cypermethrin]
Oral LD50 [2]: 250 mg/kg

CC1(C)[C@H](C(=O)O[C@H](C#N)c2cccc(Oc3ccccc3)c2)[C@@H]1C=C(Br)Br [Deltamethrin]
Oral LD50 [2]: 130 mg/kg

O=C(NC(=O)c1c(F)cccc1F)Nc1ccc(Cl)cc1 [Diflubenzuron, 1-(4-chloridephenyl)-3-(2,6-difulorobenzoyl)urea]
median lethal dose ([2]; in vivo): 4,640 mg/kg
hatching average (Haematobia irritans [3]; 50 viable eggs per container, feces of treated cattle, 25° C., control 43±4.1633): 0.5±0.1
calculated efficiency, based on the control group (Haematobia irritans [3]; in vitro, method of HOLDSWORTH et al., 2006): 98.83%
average engorged female ticks' weight ([4]; control 278 mg): 153 mg
weight of collected engorged ticks ([4]; control 260-295 mg): 145 to 165 mg
average egg laying of the female ([4]; control 2,600): 900 eggs
reduction on horn fly numbers on the treated group (Haematobia irritans [5]): higher than 99%

N#Cc1nn(-c2c(Cl)cc(C(F)(F)F)cc2Cl)c(N)c1[S+]([O-])C(F)(F)F (stereo not drawn) [Fipronil]
Oral LD50 [2]: 97 mg/kg

Abamectin
Oral LD50 [2]: 10 mg/kg

Ivermectin
Oral LD50 [2]: 52 mg/kg
reductions in FEC [6]: < 50%
